Measured values reported in US20150132229A1, “BIS AZAINOSITOL HEAVY METAL COMPLEXES FOR X-RAY IMAGING” (BAYER PHARMA AKTIENGESELLSCHAFT, priority 2012, published 2015).
Blank lines part the entries; values can stand above or below the substance they belong to.

Legend:
[1] = Excretion in rats (Hafnium in urine, faeces, organs and carcass by ICP-MS); assay type: in vivo; conditions: i.v. 150 mg Hf/kg
Method: An aqueous solution of [Hf3(H−3tacitp)2](in 10 mM trometamol buffer, pH 7.4, 60 mg Hf/mL) was injected in the tail vein of 3 rats (ca. […]) at a dose of 150 mg Hf/kg. Urine samples were collected at the following time intervals: 0-0.5, 0.5-1, 1-3, 3-6, 6-24 h and then daily until day 7. Faeces was collected daily until day 7. On day 7 the animals were sacrificed and the following organs were excised: liver, kidneys, spleen, heart, lung, brain, lymph nodes, muscle, gut, duodenum, skin, bone marrow, bone. The remaining body was freeze dried and ground to obtain a fine powder.
The Hafnium concentration in all specimen was determined after digestion in oxidizing solution (nitric acid and hydrogen peroxide) at elevated pressure and temperature. The measurement of Hafnium was performed by ICP-MS.

[2] = Pharmacokinetics in rats (Hafnium blood concentration by ICP-MS, 3-compartment model); assay type: in vivo; conditions: i.v. 150 mg Hf/kg
Method: An aqueous solution of [Hf3(H−3tacitp)2](in 10 mM trometamol buffer, pH 7.4, 60 mg Hf/mL) was injected in the tail vein of 3 rats (ca. 250 g) at a dose of 150 mg Hf/kg. Blood samples were collected via a catheter from the arteria carotis at the following times: 1, 2, 5, 10, 15, 30, 60, 90, 120, 240, 360 and 1440 min after injection.
The Hafnium concentration in all blood samples was determined after digestion in oxidizing solution (nitric acid and hydrogen peroxide) at elevated pressure and temperature. The measurement of Hafnium was performed by ICP-MS.
The pharmacokinetic parameters were obtained for each animal by fitting the blood concentrations to a 3-compartment model, using the software WinNonlin.

[3] = Stability of bis azainositol heavy metal complexes under heat sterilization (121° C., 45 min, pH 7.4; HPLC and ICP-OES); conditions: aqueous buffered solution pH 7.4, 5 mmol/L, 121° C. for 45 min in steam autoclave; absolute stability = HPLC peak area ratio x metal concentration ratio after/before
Method: The stability of bis azainositol heavy metal complexes was determined in aqueous, buffered solution at pH 7.4. The solution containing 5 mmol/L of the compound in a tightly sealed vessel was heated to 121° C. for 45 min in a steam autoclave. The metal concentration of the solution was determined by ICP-OES before and after heat treatment. The integrity of the compound was determined by HPLC analysis before and after heat treatment. Absolute stability was calculated as the ratio of the peak area of the compound after and before the heat treatment multiplied with the ratio of the metal concentration of the solution after and before heat treatment.
Column: Reversed phase C18. […] Solvent B: methanol, HPLC grade Gradient: gradients starting from 100% A and 0% B were used. Flow: 1 mL/min Detector D1: element specific detection by ICP-OES running at the most sensitive emission wavelength of the respective complexed metal. Detector D2: element specific detection by ICP-MS running at the most abundant isotope of the respective complexed metal.

Han-Wistar rat = test: Preclinical X-ray imaging: contrast enhanced CT of an anaesthetized rat; assay type: in vivo; conditions: i.v. tail vein, 200 mg Lu per kg body weight, 149 mg Lu/mL, 120 kV
Method: The study was performed on a clinical CT unit (Sensation 64, Siemens Medical Solutions, Erlangen, Germany) with an anaesthetized rat. The compound described in example 2 was used as X-ray diagnostic agents in order to perform contrast enhanced CT imaging.
The study was performed on a healthy Han-Wistar rat. Initial anaesthesia was induced by inhalation of 4% Isoflurane (Baxter Deutschland GmbH, Unterschleiβheim, Germany) and maintained by 1.5% Isoflurane. The X-ray diagnostic agent (Example 2) at a concentration of 149 mg Lu/mL was administered intravenously via the tail vein by the help of a dedicated injection pump (flow rate=0.6 mL/s). A dosage of 200 mg Lu per kg body weight was used. In order to simulate a clinical condition the rat was placed within a tissue equivalent phantom (QRM, Möhrendorf, Germany) that mimics the human abdomen in respect of X-ray absorption.
An X-ray projection image (topogram) was acquired to adjust the measurement range to the thoracal region of the animal. The subsequent contrast enhanced measurement was done with following CT parameter settings: X-ray tube voltage=120 kV, mAs-product=160 mAs, tube rotational time=0.5 s, slice thickness=2.4 mm, measurement time=20 s. […]
The signal-time course in the left heart chamber was quantified by a region of interest analysis. […]

mice = test: Tolerability in mice (behaviour and survival after 7 d); assay type: in vivo; conditions: i.v. tail vein
Method: An aqueous solution of Na3[Lu3(H−3tacita)2](in 10 mM trometamol buffer, pH 7.4, 148 mg Lu/mL) was injected in the tail vein of 1-3 mice for each dose group (22-25 g) at increasing doses ranging from 1000 to 3000 mg Lu/kg. The behaviour of the animals and the survival after 7 d was recorded.

injected Hafnium excreted via the urine ([1]; after 1 d, cumulative): 96%
injected Hafnium found in all organs and the carcass together ([1]; after 7 d): 0.33%
injected Hafnium excreted via the urine ([1]; after 7 d, cumulative): 97%
injected Hafnium found in faeces ([1]; after 7 d, cumulative): About 1.3%
total plasma clearance [2]: 10 ± 0.6 mL/min/kg
blood half live ([2]; elimination phase): 22.6 ± 3.1 min
volume of distribution ([2]; elimination phase): 0.31±0.01 I/kg
Substance: Bis{μ3-[(all-cis)-2-{[(carboxy-1κO)ethyl]amino-1κN}-4-{[(carboxy-2κO)ethyl]amino-2κN}-6-{[(carboxy-3κO)ethyl]amino-3κN}cyclohexane-1,3,5-triolate-1κ^2O^1,O^3:2κ^2O^3,O^5:3κ^2O^1,O^5]}trihafnium(IV) [Example 13]
Hafnium content of organs other than kidney ([1]; after 7 d): ≤ 0.01 % of the injected dose/g organ (wet weight)

Substance: Bis{μ3-[(all-cis)-2-{[(carboxy-1κO)methyl]amino-1κN}-4-{[(carboxy-2κO)methyl]amino-2κN}-6-{[(carboxy-3κO)methyl]amino-3κN}cyclohexane-1,3,5-triolate-1κ^2O^1,O^3:2κ^2O^3,O^5:3κ^2O^1,O^5]}trihafnium(IV) [Example 1]
Stability [3]: 102%

Stability [3]: 96%
Substance: Trisodium bis{μ3-(all-cis)-2-{[(carboxy-1κO)ethyl](methyl)-amino-1κN}-4-{[(carboxy-2κO)ethyl](methyl)amino-2κN}-6-{[(carboxy-3κO)ethyl]-(methyl)amino-3κN}cyclohexane-1,3,5-triolate-1κ^2O^1,O^3:2κ^2O^3,O^5:3κ^2O^1,O^5]}triytterbate(II) [Example 23]

Stability [3]: 90%
Substance: Trisodium bis{μ3-[(all-cis)-2-{[(carboxy-1κO)ethyl](methyl)-amino-1κN}-4-{[(carboxy-2κO)ethyl](methyl)amino-2κN}-6-{[(carboxy-3κO)ethyl]-(methyl)amino-3κN}cyclohexane-1,3,5-triolate-1κ^2O^1,O^3:2κ^2O^3,O^5:3κ^2O^1,O^5]}trilutetate(III) [Example 19]

Substance: Trisodium bis{μ3-[(all-cis)-2-{[(carboxy-1κO)methyl]amino-1κN}-4-{[(carboxy-2κO)methyl]amino-2κN}-6-{[(carboxy-3κO)methyl]amino-3κN}cyclohexane-1,3,5-triolate-1κ^2O^1,O^3:2κ^2O^3,O^5:3κ^2O^1,O^5]}trilutetate(III) [Example 2]
CT signal change in blood vessels and heart chambers during passage of the diagnostic agent (Han-Wistar rat): strong signal increase
survival after 7 d (mice; 1000 mg Lu/kg): all animals survived
survival after 7 d (mice; 2000 mg Lu/kg): all animals survived
survival after 7 d (mice; 2500 mg Lu/kg): all animals survived
survival after 7 d (mice; 3000 mg Lu/kg): 2 of 3 animals died
Stability [3]: 100%
